# Data published in patent publication US4440784A, “Anti-inflammatory, analgesic, and antipyretic pharmaceutical composition” (Kanegafuchi Chemical Industry Company, Ltd., priority 1981, dated 1984).
# Like-named read-outs stand apart in the source and are kept apart here.
# How the values were obtained:
# [1] = test system: adjuvant-induced arthritis in rats; test: adjuvant-induced arthritis in rats (chronic anti-inflammatory activity); type: in vivo, male Sprague-Dawley strain rats; conditions: rat, p.o. once daily
# Description: (3) A chronic anti-inflammatory activity was evaluated by the method of adjuvant-induced arthritis in rats [D. T. Walz et al., J. Pharmacol. and Exp. Ther., 178, 223 (1971)]. Eight male Sprague-Dawley strain rats weighing 190~230 g were used in each group. Into the left hind paw of rats was injected i.d. 0.5 mg of Mycobacterium butyricum suspended in 0.05 ml of paraffin oil. Test compounds suspended in 2.5% acacia were administered p.o. once daily for 21 days, starting on the day of the injection of an adjuvant (day 0). Paw volumes of adjuvant-injected and uninjected feet were measured on day 14 and on day 21. Percent inhibition was calculated by the following equation. [formula]
# [2] = test system: acetic acid-induced writhing in mice; test: acetic acid-induced writhing in mice (analgesic activity); type: in vivo, male ddY strain mice; conditions: po; mouse, p.o., 100 mg/kg, 1 hour before acetic acid i.p.; read-out: Inhibition (writhing)
# Description: An analgesic activity was evaluated by the method of acetic acid-induced writhing in mice [R. Koster et al., Federation Proc., 18, 412 (1959)]. Ten male ddY strain mice weighing 20~25 g were used in each group. Test compounds suspended in 2.5% acacia were administered p.o. to the mice. One hour later, the mice were injected i.p. with 0.6% acetic acid in a volume of 0.1 ml/10 g body weight. The number of writhes in each of mice was counted for 20 minutes after the injection of the acetic acid. Percent inhibition was calculated by the following equation. [formula]
# [3] = toxicity test in mice (LD50); conditions: in vivo, po; mouse, 14 days observation
# Description: Female ICR strain mice weighing 20~25 g in groups of six each were used for toxicity tests. Test compounds suspended in 2.5% acacia were administered p.o. to the mice. The animals were observed daily for 14 days after the administration. The LD50 values were estimated from mortality (No. of dead mice/No. of mice used).
# [4] = test system: yeast-induced fever in rats; test: yeast-induced fever in rats (antipyretic activity); type: in vivo, male Wistar strain rats; conditions: po, rat, p.o., 100 mg/kg
# Description: Five male Wistar strain rats weighing 150~180 g were used in each group. A 20% Baker's yeast suspension in 0.9% NaCl was injected s.c. into the dorsal region of rats in a volume of 1 ml/100 g body weight. […] The rectal temperature was determined with a thermometer, 1, 3 and 5 hours after the administration of test compounds. Percent inhibition was calculated by the following equation. [formula]
# [5] = test system: paper disk-induced granuloma in rats; test: paper disk-induced granuloma in rats (sub-chronic anti-inflammatory activity); type: in vivo, male Wistar strain rats; conditions: rat, p.o. once daily for 7 days
# Description: Six male Wistar strain rats weighing 150~180 g were used in each group. Each paper disk (29±1 mg) was implanted s.c. into the bilateral area of the scapula of rats under anesthesia with amobarbital sodium. […] The rats were killed on day 7, at which time the paper disks with surrounding granulomatous tissues were removed and dried to constant weight overnight, and weighed. Percent inhibition was calculated by the following equation. [formula]
# [6] = test system: carrageenan-induced paw edema in rats; test: carrageenan-induced paw edema in rats (acute anti-inflammatory activity); type: in vivo, male Wistar strain rats; conditions: po, rat, p.o., 50 mg/kg
# Description: (1) An acute anti-inflammatory activity was evaluated by the method of carrageenan-induced paw edema in rats [C. A. Winter et al., Proc. Soc. […] Six male Wistar strain rats weighing 150~180 g were used in each group. […] The volume of each paw edema was measured 3 and 5 hours after the injection of carrageenan. Percent edema inhibition was calculated by the following equation. [formula]
# [7] = 1 hour after administration, read-out: Inhibition (fever), 1 hour
# [8] = 3 hours after administration, read-out: Inhibition (fever), 3 hours
# [9] = 5 hours after administration, read-out: Inhibition (fever), 5 hours
# [10] = 3 hours after carrageenan, read-out: Percent edema inhibition, 3 hours
# [11] = 5 hours after carrageenan, read-out: Percent edema inhibition, 5 hours
SMILES,"Inhibition, injected foot, Day 14 ([1]; 12.5 mg/kg/day) [%]","Inhibition, injected foot, Day 21 ([1]; 12.5 mg/kg/day) [%]","Inhibition, uninjected foot, Day 14 ([1]; 12.5 mg/kg/day) [%]","Inhibition, uninjected foot, Day 21 ([1]; 12.5 mg/kg/day) [%]","Inhibition, injected foot, Day 14 ([1]; 50 mg/kg/day) [%]","Inhibition, injected foot, Day 21 ([1]; 50 mg/kg/day) [%]","Inhibition, uninjected foot, Day 14 ([1]; 50 mg/kg/day) [%]","Inhibition, uninjected foot, Day 21 ([1]; 50 mg/kg/day) [%]",inhibition in vivo at 100 mg/kg [2] [%],LD50 at 336 h [3] [mg/kg],"inhibition in vivo at 100 mg/kg [4, 7] [%]","inhibition in vivo at 100 mg/kg [4, 8] [%]","inhibition in vivo at 100 mg/kg [4, 9] [%]",Inhibition (granuloma) ([5]; 25 mg/kg/day) [%],Inhibition (granuloma) ([5]; 100 mg/kg/day) [%],"inhibition in vivo at 50 mg/kg [6, 10] [%]","inhibition in vivo at 50 mg/kg [6, 11] [%]"
"CC(C)(C)c1cc(C=C(C#N)C(N)=O)cc(C(C)(C)C)c1O [Compound IX, β-Carbamoyl-β-cyano-3,5-di-tert-butyl-4-hydroxystyrene]",33.3,46.1,70.3,42.6,31.6,29.6,40.5,42.6,50.7,> 1000,35.4,77.3,87,27.0,25.0,40.8,34.2
"CC(=O)C=Cc1cc(C(C)(C)C)c(O)c(C(C)(C)C)c1 [Compound V, β-Acetyl-3,5-di-tert-butyl-4-hydroxystyrene]",12.0,29.6,10.6,14.7,37.3,58.8,74.5,69.3,53.1,> 1000,34.5,70.9,64.9,29.4,29.0,43.2,50
